For one test, the target named is T1, IRAK4 (Homo sapiens, UniProt Q9NWZ3).
T1 sequence (Q9NWZ3 1-460): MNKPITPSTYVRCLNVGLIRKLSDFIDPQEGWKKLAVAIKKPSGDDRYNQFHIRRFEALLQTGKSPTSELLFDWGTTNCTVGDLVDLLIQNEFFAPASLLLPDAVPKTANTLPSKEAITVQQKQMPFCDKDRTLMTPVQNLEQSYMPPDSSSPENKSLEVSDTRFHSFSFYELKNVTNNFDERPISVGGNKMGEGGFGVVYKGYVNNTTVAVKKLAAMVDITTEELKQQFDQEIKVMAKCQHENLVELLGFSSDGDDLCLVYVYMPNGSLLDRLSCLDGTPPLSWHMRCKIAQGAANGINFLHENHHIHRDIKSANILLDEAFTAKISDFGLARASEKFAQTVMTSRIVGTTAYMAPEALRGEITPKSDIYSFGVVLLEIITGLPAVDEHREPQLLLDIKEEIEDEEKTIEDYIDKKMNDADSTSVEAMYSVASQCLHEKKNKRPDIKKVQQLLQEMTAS
In words: NanoBRET target engagement assay in HEK-293 cells, IRAK4. The format is cell-based. As to conditions: live HEK-293 cells, 1 h. The text has this: (§1) The NanoBRET assay measures kinase engagement in real time in the context of the intact cell. Unlike the previously described biochemical kinase assay methodology, the NanoBRET assay measures the binding and activity characteristics under equilibrium conditions using full-length kinases in the presence of cellular concentrations of ATP in live, uncompromised cells. As such, the assay provides a more relevant assessment of kinase potency and selectivity that would be expected to be observed in the native cellular environment, where potency is often considerably lower than that observed in the isolated biochemical assays (Vasta, J. D. et al., (2018) Cell Chem. Biol. 25, 206-214). The assay uses a Kinase-NanoLuc® fusion vector expressing a kinase protein to which a luciferase tag has been added, a cell-permeant fluorescent NanoBRET™ tracer, a NanoLuc® substrate, and an extracellular NanoLuc® inhibitor. Upon expression of the luciferase-tagged kinase, cells will produce a strong BRET signal only in the presence of the NanoBRET™ tracer. The extracellular NanoLuc® inhibitor ensures that the BRET signal observed emanates only from live cells. Because the BRET signal has tight distance constraints, addition of the test compound will decrease the BRET signal if the compound competes with the NanoBRET™ tracer for binding to the kinase domain. Under the appropriate tracer conditions established by the manufacturer, quantitative intracellular affinity and relative potency can then be determined using Mass Action model equations.
(§2) HEK-293 cells were purchased from ATCC. FuGENEHD Transfection Reagent, Kinase-NanoLucfusion plasmids, Transfection Carrier DNA, NanoBRETTracers and dilution buffer, NanoBRETNano-Glo Substrate, Extracellular NanoLucInhibitor were obtained from Promega.
(§3) Assays were conducted following Promega assay protocol with some modifications. HEK-293 Cells were transiently transfected with Kinase-NanoLucFusion Vector DNA by FuGENEHD Transfection Reagent. Testing compounds were delivered into 384 well assay plate by Echo 550 (LabcyteInc, Sunnyvale, CA). Transfected cells were harvested and mixed with NanoBRETTracer Reagent and dispensed into 384 well plates and incubated at 37 °C in 5% CO2 cell culture incubator for 1 hour. The NanoBRETNano-Glo Substrate plus Extracellular NanoLucInhibitor Solution were added into the wells of the assay plate and incubated for 2-3 minutes at room temperature. The donor emission wavelength (460 nm) and acceptor emission wavelength (600 nm) were measured in the En Visionplate reader. The BRET Ratios were calculated.
(§4) BRET Ratio=[(Acceptor sample÷Donor sample)−(Acceptor no-tracer control÷Donor no-tracer control)].
(§5) The IC50 values of compounds were calculated with Prism GraphPad program.
(§6) • 1). Cultivate HEK-293 cells (70-80% confluence) appropriately prior to assay. Trypsinize and collect HEK-293 cells. • 2). Prepare lipid:DNA complexes as follows: • a. Prepare a 10 μg/ml solution of DNA in Opti-MEM without serum that consists of the following ratios of carrier DNA and DNA encoding NanoLuc® fusion. 9.0 μg/mL of Transfection Carrier DNA, 1.0 μg/mL of NanoLuc fusion vector DNA and 1 mL of Opti-MEM without phenol red. Mix thoroughly. • b. Add 30 μl of FuGENE HD Transfection Reagent into each milliliter of DNA mixture to form lipid:DNA complex. • c. Mix by inversion 10 times. • d. Incubate at ambient temperature for 20 minutes to allow complexes to form. • 3). In a sterile, conical tube, mix 1 part of lipid:DNA complex with 20 parts of HEK-293 cells in suspension. Mix gently by inversion 5 times. • 4). Dispense cells+lipid:DNA complex into a sterile tissue culture dish and incubate for 22-24 hours.
(§7) Each test compound is delivered from the compound source plate to the wells of 384-well white NBS plate by Echo 550.
(§8) 3. Preparation of Cells with NanoBRET™ Tracer Reagent • 1). Remove medium from dish with transfected HEK-293 cells via aspiration, trypsinize and allow cells to dissociate from the dish. • 2). […]
In general terms: BRET reads energy transfer from a luciferase to a nearby fluorophore.

The target of a further test is T2, FLT3 (Homo sapiens, UniProt P36888).
T2 sequence (P36888 27-993): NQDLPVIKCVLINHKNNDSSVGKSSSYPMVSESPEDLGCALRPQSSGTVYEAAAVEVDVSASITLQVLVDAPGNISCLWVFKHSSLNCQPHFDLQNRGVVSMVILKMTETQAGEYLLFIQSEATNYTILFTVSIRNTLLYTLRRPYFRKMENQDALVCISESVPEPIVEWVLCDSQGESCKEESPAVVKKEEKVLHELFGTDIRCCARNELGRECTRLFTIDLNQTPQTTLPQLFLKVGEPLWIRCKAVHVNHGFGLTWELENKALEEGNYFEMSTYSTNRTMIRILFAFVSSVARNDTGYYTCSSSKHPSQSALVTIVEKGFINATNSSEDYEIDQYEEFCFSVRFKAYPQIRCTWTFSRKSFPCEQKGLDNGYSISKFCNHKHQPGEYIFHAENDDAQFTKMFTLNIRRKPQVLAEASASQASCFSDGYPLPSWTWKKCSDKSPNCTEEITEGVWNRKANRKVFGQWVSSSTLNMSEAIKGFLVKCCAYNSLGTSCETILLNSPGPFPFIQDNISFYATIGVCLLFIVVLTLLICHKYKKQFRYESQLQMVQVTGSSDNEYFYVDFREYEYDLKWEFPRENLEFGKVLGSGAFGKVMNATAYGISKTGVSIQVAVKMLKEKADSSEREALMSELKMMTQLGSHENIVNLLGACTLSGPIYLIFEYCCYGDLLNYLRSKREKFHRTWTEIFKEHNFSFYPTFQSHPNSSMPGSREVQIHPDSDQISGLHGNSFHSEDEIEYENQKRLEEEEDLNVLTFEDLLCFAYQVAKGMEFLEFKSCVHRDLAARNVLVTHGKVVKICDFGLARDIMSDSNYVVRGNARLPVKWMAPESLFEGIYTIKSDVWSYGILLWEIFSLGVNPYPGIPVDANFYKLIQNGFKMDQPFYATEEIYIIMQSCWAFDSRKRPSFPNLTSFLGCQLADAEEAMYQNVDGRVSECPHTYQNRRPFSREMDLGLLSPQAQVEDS
As to the kind of experiment: NanoBRET target engagement assay in HEK-293 cells, FLT3. It is filed as cell-based. The following applies: live HEK-293 cells, 1 h.
Text: as §1, §2, §3, §4, §5, §6, §7, §8

Consider 15 compounds from patent US20260374773A1, “MULTI-CYCLIC IRAK AND FLT3 INHIBITING COMPOUNDS AND USES THEREOF” (CHILDREN'S HOSPITAL MEDICAL CENTER, priority 2022, published 2026).

A value given as a limit tells only on which side of the number the result lay.

By IC50 is commonly meant the concentration at which inhibition is half-maximal. A low value points to inhibition by little substance.

Regarding `COc1cn2ncc(-c3nc(N[C@H]4CNCC[C@@H]4F)ncc3F)c2nc1C(C)(C)O` [Compound 6a, 2-(3-(5-fluoro-2-(((3S,4S)-4-fluoropiperidin-3-yl)amino)pyrimidin-4-yl)-6-methoxypyrazolo[1,5-a]pyrimidin-5-yl)propan-2-ol], the values for the IC50 against IRAK4 (Table 20) and at FLT3 (Table 20) were less than 0.5 nM and 12 nM, respectively.

Turning to `COc1cn2ncc(-c3ccc(F)c(N[C@H]4CNCC[C@@H]4F)n3)c2nc1C1CC1` [Compound 6, 6-(5-cyclopropyl-6-methoxypyrazolo[1,5-a]pyrimidin-3-yl)-3-fluoro-N-((3S,4S)-4-fluoropiperidin-3-yl)pyridin-2-amine], the IC50 at IRAK4 (Table 14) and at FLT3 (Table 14) was less than 0.5 nM in each case.

On to `COc1cn2ncc(-c3cccc(N[C@H]4CNCC[C@@H]4F)n3)c2nc1C1CC1` [Compound 21, 6-(5-cyclopropyl-6-methoxypyrazolo[1,5-a]pyrimidin-3-yl)-N-((3S,4S)-4-fluoropiperidin-3-yl)pyridin-2-amine], for which the IC50 was less than 0.5 nM at IRAK4 (Table 14) and 0.6 nM against FLT3 (Table 14).

For the compound `COc1cn2ncc(-c3cncc(N[C@H]4CNCC[C@@H]4F)n3)c2nc1C1CC1` [Compound 12a, 6-(5-cyclopropyl-6-methoxypyrazolo[1,5-a]pyrimidin-3-yl)-N-((3S,4S)-4-fluoropiperidin-3-yl)pyrazin-2-amine], the results for the IC50 against IRAK4 (Table 20) and on FLT3 (Table 20) were less than 0.5 nM and 1 nM, respectively.

Turning to `COc1cn2ncc(-c3nc(N[C@@H]4CCCNC4)c(F)cc3F)c2nc1C(C)(C)O` [Compound 11, (R)-2-(3-(3,5-difluoro-6-(piperidin-3-ylamino)pyridin-2-yl)-6-methoxypyrazolo[1,5-a]pyrimidin-5-yl)propan-2-ol], the IC50 was less than 0.5 nM against IRAK4 (Table 14) and 5 nM against FLT3 (Table 14).

`COc1cn2ncc(-c3cncc(N[C@@H]4CCCNC4)n3)c2nc1C1CC1` [Compound 11a, (R)-6-(5-cyclopropyl-6-methoxypyrazolo[1,5-a]pyrimidin-3-yl)-N-(piperidin-3-yl)pyrazin-2-amine]: the 50% inhibitory concentration (IC50) against IRAK4 (Table 20) was less than 0.5 nM; against FLT3 (Table 20), 2 nM.

For `COc1cn2ncc(-c3nc(N[C@@H]4CCCNC4)ncc3F)c2nc1C1CC1` [Compound 14a, (R)-4-(5-cyclopropyl-6-methoxypyrazolo[1,5-a]pyrimidin-3-yl)-5-fluoro-N-(piperidin-3-yl)pyrimidin-2-amine], the IC50 on IRAK4 (Table 20) and on FLT3 (Table 20) was less than 0.5 nM in each case.

For `COc1cn2ncc(-c3nc(N[C@H]4CNCC[C@@H]4F)ccc3F)c2nc1C1CC1` [Compound 3, 6-(5-cyclopropyl-6-methoxypyrazolo[1,5-a]pyrimidin-3-yl)-5-fluoro-N-((3S,4S)-4-fluoropiperidin-3-yl)pyridin-2-amine], the IC50 at IRAK4 (Table 14) and on FLT3 (Table 14) was less than 0.5 nM each time.

In the case of `COc1cn2ncc(-c3nc(N[C@H]4CNCC[C@@H]4F)ncc3F)c2nc1C1CC1` [Compound 15a, 4-(5-cyclopropyl-6-methoxypyrazolo[1,5-a]pyrimidin-3-yl)-5-fluoro-N-((3S,4S)-4-fluoropiperidin-3-yl)pyrimidin-2-amine], the figures for the IC50 on IRAK4 (Table 20) and on FLT3 (Table 20) were less than 0.5 nM and 2 nM, respectively.

Consider `COc1cn2ncc(-c3nc(N[C@@H]4CCCNC4)ncc3F)c2nc1C(C)(C)O` [Compound 4a, (R)-2-(3-(5-fluoro-2-(piperidin-3-ylamino)pyrimidin-4-yl)-6-methoxypyrazolo[1,5-a]pyrimidin-5-yl)propan-2-ol], for which the values for the IC50 at IRAK4 (Table 20) and against FLT3 (Table 20) were 3 nM and 52 nM, respectively.

As to `COc1cn2ncc(-c3ccnc(N[C@H]4CNC[C@@H]4F)n3)c2nc1C1CC1` [Compound 8a, 4-(5-cyclopropyl-6-methoxypyrazolo[1,5-a]pyrimidin-3-yl)-N-((3S,4S)-4-fluoropyrrolidin-3-yl)pyrimidin-2-amine], the results for the IC50 at IRAK4 (Table 20) and at FLT3 (Table 20) were 0.6 nM and 11 nM, respectively.

Turning to `COc1cn2ncc(-c3nc(N[C@H]4CNC[C@@H]4F)c(F)cc3F)c2nc1C(C)(C)O` [Compound 12, 2-(3-(3,5-difluoro-6-(((3S,4S)-4-fluoropyrrolidin-3-yl)amino)pyridin-2-yl)-6-methoxypyrazolo[1,5-a]pyrimidin-5-yl)propan-2-ol], the results for the IC50 at IRAK4 (Table 14) and against FLT3 (Table 14) were less than 0.5 nM and 321 nM, respectively.

Take `COc1cn2ncc(-c3nc(N[C@H]4CNC[C@@H]4F)ncc3F)c2nc1C1CC1` [Compound 13a, 4-(5-cyclopropyl-6-methoxypyrazolo[1,5-a]pyrimidin-3-yl)-5-fluoro-N-((3S,4S)-4-fluoropyrrolidin-3-yl)pyrimidin-2-amine]: the IC50 is less than 0.5 nM against IRAK4 (Table 20) and 0.5 nM at FLT3 (Table 20).

Consider `COc1cn2ncc(-c3ccnc(N[C@H]4CNCC[C@@H]4F)n3)c2nc1C1CC1` [Compound 7a, 4-(5-cyclopropyl-6-methoxypyrazolo[1,5-a]pyrimidin-3-yl)-N-((3S,4S)-4-fluoropiperidin-3-yl)pyrimidin-2-amine], for which the half-inhibitory concentration (IC50) at IRAK4 (Table 20) turned out to be 0.8 nM; against FLT3 (Table 20), 9 nM.

`COc1cn2ncc(-c3ccc(F)c(N[C@@H]4CCCNC4)n3)c2nc1C1CC1` [Compound 5, (R)-6-(5-cyclopropyl-6-methoxypyrazolo[1,5-a]pyrimidin-3-yl)-3-fluoro-N-(piperidin-3-yl)pyridin-2-amine]: the IC50 was 3 nM on IRAK4 (Table 14) and 9 nM on FLT3 (Table 14).
